According to US6890933B1, “Kinesin inhibitors” (President and Fellows of Harvard College, priority 2000, dated 2005):
“Also recorded” adds a separate entry of the source. Like-named read-outs stand apart in the source and are kept apart here.

Columns and labels:
[1] = target: T1, human Eg5 (Homo sapiens, UniProt P52732); test: In vitro NADH enzyme coupled ATPase assay with purified recombinant human Eg5 (Eg5-405); type: biochemical
T1 construct: human Eg5 (N-terminal 405 amino acids and 6-His tagged at C terminus); made in house; host or cells: E. coli BL21 pLysS (DE3), plasmid pRSETa
T1 sequence (P52732 1-405 limits assumed): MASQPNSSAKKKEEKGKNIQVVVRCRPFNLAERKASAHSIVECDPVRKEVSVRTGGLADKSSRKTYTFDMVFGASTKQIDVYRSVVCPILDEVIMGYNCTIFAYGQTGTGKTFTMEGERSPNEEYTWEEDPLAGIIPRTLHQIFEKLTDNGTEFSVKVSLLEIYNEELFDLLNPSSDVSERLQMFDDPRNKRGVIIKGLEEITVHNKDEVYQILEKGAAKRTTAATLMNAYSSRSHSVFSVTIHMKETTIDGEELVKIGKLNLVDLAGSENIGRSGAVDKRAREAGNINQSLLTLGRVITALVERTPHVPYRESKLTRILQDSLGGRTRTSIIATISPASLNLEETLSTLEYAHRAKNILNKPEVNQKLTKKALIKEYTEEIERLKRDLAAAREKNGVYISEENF
Description: FIG. 7 depicts a description of the NADH enzyme coupled ATPase assay used to study the inhibition of the ability of purified human recombinant Eg5 to hydrolyze ATP in the presence and absence of 22C16 and monastrol.
(§1) In vitro NADH Enzyme Coupled A TPase: (variation on Methods Described in Crevel, Lockhart, and Cross. J. Mol. Biol. (1997) 273, 160-170.)
For a brief description as the ATPase assay used in the present example, see FIG. 7.
(§2) A solution containing the microtubule resuspension buffer was supplemented with 1 mM Mg-ATP, 100 uM nicotinamide adenine dinucleotide (NADH), 1 mM phosphoenol pyruvate, 5 ug/ml pyruvate kinase, 7.5 ug/ml lactate dehydrogenase, 0.7 uM resuspended microtubules, and 0.5% dimethylsulfoxide (DMSO).
Next, serial dilutions of the compound 22C16 were prepared in the supplemented microtubule resuspension buffer. Purified recombinant human Eg5 protein was added resulting in a final concentration of 50 uM. The subsequent fluorescent reaction was measured in NUNC black walled 384 well plates at 340 nm using a Wallac plate reader.

[2] = tested on: BS-C-1 cells; test: Cell assay for formation of mono-astral spindle structures (immunofluorescence, DAPI / anti-alpha-tubulin); type: cell-based, monkey; details: for IC50: Primates, BSC-1, BS-C-1 cells, direct comparison, unpublished observations of Mayer and Mitchison, read-out: IC50 (median inhibitory concentration), formation of mono-astral structures
Description: When the effects of 22C16 and monastrol on microtubule structure were directly compared, it was shown by examining formation of mono-astral structures that 22C16 has an IC50 (median inhibitory concentration) of approximately 2 uM as compared to the IC50 of approximately 20 uM for monastrol (Mayer and Mitchison, unpublished observations). For experimental details on the cell assay to determine mono-astral structures, see Mayer et al. Science 286:971-974, 1999. Images of live BS-C-1 cells were taken as described (Cramer et al. Curr. Opin. Cell. Biol. 67:82, 1994). Briefly, for immunofluorescence, BS-C-1 cells were stained with DAPI (4′,6-diamidino-2-phenylindole; Sigma-Aldrich) to visualize DNA and anti-α-tubulin (DM1 A; Sigma-Aldrich, St. Louis) to visualize spindle structure.

[3] = tested on: BSC1 cells; type: cell-based, monkey
[4] = target: T2, conventional human kinesin (Homo sapiens, UniProt P33176); test: NADH enzyme coupled ATPase assay with conventional human kinesin (K560); type: biochemical; details: N-terminal 560 amino acids, 6-His tag
T2 construct: human kinesin (N-terminal 560 amino acids of full length protein followed by 6-His tag at C terminus); made in house; host or cells: E. coli BL21 pLysS (DE3) (the purification section covers Eg5-405 and K560)
T2 sequence (P33176 1-560): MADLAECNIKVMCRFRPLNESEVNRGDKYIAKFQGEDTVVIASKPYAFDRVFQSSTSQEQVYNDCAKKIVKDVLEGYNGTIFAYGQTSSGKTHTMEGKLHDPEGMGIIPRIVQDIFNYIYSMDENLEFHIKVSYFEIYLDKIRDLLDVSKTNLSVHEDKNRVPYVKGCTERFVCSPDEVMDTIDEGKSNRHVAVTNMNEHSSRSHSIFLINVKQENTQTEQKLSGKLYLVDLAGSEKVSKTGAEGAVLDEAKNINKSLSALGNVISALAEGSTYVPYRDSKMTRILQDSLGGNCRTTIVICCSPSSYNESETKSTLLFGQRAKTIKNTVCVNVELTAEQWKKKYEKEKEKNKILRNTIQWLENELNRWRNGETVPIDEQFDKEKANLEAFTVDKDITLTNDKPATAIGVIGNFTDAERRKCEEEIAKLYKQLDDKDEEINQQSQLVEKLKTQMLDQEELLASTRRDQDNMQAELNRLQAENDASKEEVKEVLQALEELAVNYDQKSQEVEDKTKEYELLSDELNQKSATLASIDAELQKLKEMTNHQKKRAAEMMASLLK
Description: Since the effect of 22C16 on mono-astral formation in mammalian cells was similar to that of cells treated with monastrol, the ability of 22C16 to inhibit kinesins was examined.
Purification of Eg5-405 and K560 (560 Amino Acid Kinesin Construct):
as §1, §2

[5] = target: T3, full length Xenopus Eg5 (Xenopus laevis, UniProt P28025); test: Microtubule motility driven by full length Xenopus Eg5, with washout; type: biochemical; details: full length Xenopus Eg5, washout experiment
T3 construct: Full length Xenopus Eg5 was expressed in baculovirus according to standard protocols; made in house
T3 sequence (P28025 1-1067): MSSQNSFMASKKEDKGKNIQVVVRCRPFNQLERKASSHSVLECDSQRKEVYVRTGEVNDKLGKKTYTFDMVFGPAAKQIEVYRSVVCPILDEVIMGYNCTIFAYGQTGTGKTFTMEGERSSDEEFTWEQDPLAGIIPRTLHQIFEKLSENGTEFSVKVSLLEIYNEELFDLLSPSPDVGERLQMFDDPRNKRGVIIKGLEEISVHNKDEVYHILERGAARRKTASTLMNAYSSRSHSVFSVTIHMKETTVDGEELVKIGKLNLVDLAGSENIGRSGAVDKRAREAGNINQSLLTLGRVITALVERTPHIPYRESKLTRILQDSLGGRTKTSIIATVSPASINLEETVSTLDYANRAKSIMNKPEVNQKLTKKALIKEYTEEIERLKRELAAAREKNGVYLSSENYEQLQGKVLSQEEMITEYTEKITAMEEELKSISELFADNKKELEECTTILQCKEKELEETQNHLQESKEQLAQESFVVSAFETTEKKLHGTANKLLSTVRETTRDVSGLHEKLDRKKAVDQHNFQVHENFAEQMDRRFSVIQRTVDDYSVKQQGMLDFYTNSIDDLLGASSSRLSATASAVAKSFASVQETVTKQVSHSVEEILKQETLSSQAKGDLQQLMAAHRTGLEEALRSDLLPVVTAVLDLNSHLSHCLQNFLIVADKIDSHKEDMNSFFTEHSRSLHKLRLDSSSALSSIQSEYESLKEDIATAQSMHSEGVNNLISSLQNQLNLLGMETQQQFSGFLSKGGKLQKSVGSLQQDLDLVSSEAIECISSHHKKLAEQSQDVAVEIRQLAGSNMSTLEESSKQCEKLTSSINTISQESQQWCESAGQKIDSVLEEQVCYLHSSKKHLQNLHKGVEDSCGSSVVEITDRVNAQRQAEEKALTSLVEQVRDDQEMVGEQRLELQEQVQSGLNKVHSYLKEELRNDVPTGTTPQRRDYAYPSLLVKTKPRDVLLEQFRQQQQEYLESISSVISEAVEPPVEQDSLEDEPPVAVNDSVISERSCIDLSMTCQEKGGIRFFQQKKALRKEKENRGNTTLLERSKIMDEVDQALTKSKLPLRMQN
Description: FIG. 2 depicts the results of experiments examining the motility activity of full length Xenopus Eg5 with and without the beta-carboline, 22C16.
In addition, the ability of 22C16 to inhibit microtubule motility driven by Eg5 was examined. For experimental protocols and details, see Mayer et al. Science 286:971-974, 1999. […] For the washout, Eg5-driven microtubule motility in the presence of 22C16 was measured. The assay chamber was then depleted of 22C16 and motility was immediately measured again. Therefore, the results of the experiment depicted in FIG. 2 provide direct evidence that 22C16 inhibits the microtubule motility driven by Eg5.

SMILES	IC50 lower than monastrol (fold), ATPase assay of Example 2 ([1]; optically purified trans stereoisomer versus monastrol)	IC50 [2]	spindle phenotype in mitotic cells (in words) ([2]; mitotic mammalian (BSC1) cells)	effect on Golgi (in words) [3]	effect on interphase microtubules (in words) [3]	IC50 [1]	inhibition of ATPase activity of human Eg5 (in words) ([1]; Eg5 N-terminal 405 amino acids, 6-His tagged)	potency relative to monastrol in inhibition of ATPase activity of human kinesin Eg5 ([1]; ratio of IC50 values)	inhibition of ATPase activity of conventional human kinesin (in words) [4]	inhibition of microtubule motility driven by Eg5 (in words) [5]	IC50 ([1]; purified recombinant human Eg5, microtubules, 1 mM Mg-ATP, read-out: IC50, inhibition of Eg5 ATPase activity)
CCCCN1C(=O)C2Cc3c([nH]c4ccccc34)C(c3cccc(O)c3)N2C1=O (stereo not drawn) [trans isomer of monastroline]	approximately 8 times										
CCCCN1C(=O)C2Cc3c([nH]c4ccccc34)C(c3cccc(O)c3)N2C1=O (stereo not drawn) [22C16]		~2 µM	caused the formation of monopolar spindles; also recorded: formation of mono-astral spindles; also recorded: capable of arresting cells in mitosis; also recorded: form a mono-astral microtubule array surrounded by a ring of chromosomes	fragmented the Golgi; also recorded: fragmentation of the Golgi	did not depolymerize interphase microtubules; also recorded: without affecting interphase microtubules	1.1 µM	block the ATPase activity; also recorded: capable of inhibiting the ATPase activity; also recorded: inhibits the ability of Eg5	approximately 5 times	but not conventional human kinesin	acts reversibly to inhibit the motility of Eg5; also recorded: reversibly inhibits microtubule motility	
CCOC(=O)C1=C(C)NC(=S)NC1c1cccc(O)c1 (stereo not drawn) [monastrol, reference compound]		~20 µM									5.3 µM
